According to patent publication US20250136722A1, “CYTOTOXICITY TARGETING CHIMERAS” (GLAXOSMITHKLINE INTELLECTUAL PROPERTY DEVELOPMENT LIMITED, priority 2021, published 2025):
“And” between values parts separate entries of the source, which are not always exact repeats. Equal values may be shown once.

What was measured:
[1] = molecular target: T1, CHOK1 cells engineered to overexpress human CCR2 (Homo sapiens, UniProt P41597); assay: Antibody dependent cellular cytotoxicity (ADCC) reporter assay (Example 199); type: cell-based; settings: with anti-cotinine antibody SEQ ID NO: 11/12, CHOK1-human CCR2 target cells, Jurkat FcγRIIIa NFAT-luciferase reporter cells, 12-18 hours; for EC50: read-out: ADCC Reporter Assay pEC50 (converted)
T1 construct: expressed in transfected cells; host or cells: CHOK1 cells
How it was run: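 CHOK1-hCCR2 target cells are co-incubated for 12–18 h with Jurkat FcγRIIIa/NFAT-luciferase reporter cells, ARM compound (1 pM–10 μM) and anti-cotinine antibody with a DE-mutant human IgG1 Fc (0.01–200 μg/mL). Luminescence is expressed as signal:background against no-compound wells; EC50 comes from nonlinear fit and is reported as pEC50, averaged across runs.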

[2] = molecular target: Anti-cotinine antibody (SEQ ID NO: 11 / SEQ ID NO: 12, rabbit variable region with human IgG1 Fc domain); assay: Binding of anti-cotinine antibody to ARM compounds by SPR, Biacore T200, 37° C. (Example 202); settings: pH 7.4, rabbit variable region/human IgG1 Fc antibody captured on protein A
How it was run: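 Antibody captured on protein A chip. Compounds injected (3-fold, 5-point, top 200 nM) at 100 μL/min with 200 s association and 2000 s dissociation, at 37° C. in HEPES pH 7.4 buffer with 1% DMSO. Double-referenced data fit to 1:1 kinetics. Kd = koff/kon, reported as pKd, averaged over runs.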

[3] = molecular target: human alpha1 nicotinic acetylcholine (nACh) receptor (Homo sapiens, UniProt P02708+Q07001); assay: Nicotinic acetylcholine receptor antagonism assay, IONFlux automated patch clamp (Example 203); type: cell-based; settings: for Emax at 100 µM: maximum percentage antagonism at maximum concentration tested 100 μM; for IC50: nAChR antagonism, ACh stimulated, patch clamp
human alpha1 nicotinic acetylcholine (nACh) receptor, sequence (P02708 21-457): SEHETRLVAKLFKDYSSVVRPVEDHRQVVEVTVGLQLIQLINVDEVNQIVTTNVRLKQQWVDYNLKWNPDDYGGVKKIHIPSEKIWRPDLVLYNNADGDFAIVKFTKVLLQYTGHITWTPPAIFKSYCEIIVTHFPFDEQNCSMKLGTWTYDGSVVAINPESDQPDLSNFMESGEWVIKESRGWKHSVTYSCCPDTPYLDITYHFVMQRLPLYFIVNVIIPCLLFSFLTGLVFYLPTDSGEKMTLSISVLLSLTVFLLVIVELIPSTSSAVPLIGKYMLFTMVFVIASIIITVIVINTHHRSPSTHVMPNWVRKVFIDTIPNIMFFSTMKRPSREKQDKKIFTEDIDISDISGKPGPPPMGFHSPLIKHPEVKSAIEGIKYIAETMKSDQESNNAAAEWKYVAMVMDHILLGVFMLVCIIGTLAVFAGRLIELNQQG
human alpha1 nicotinic acetylcholine (nACh) receptor, sequence (P11230 24-501 partner): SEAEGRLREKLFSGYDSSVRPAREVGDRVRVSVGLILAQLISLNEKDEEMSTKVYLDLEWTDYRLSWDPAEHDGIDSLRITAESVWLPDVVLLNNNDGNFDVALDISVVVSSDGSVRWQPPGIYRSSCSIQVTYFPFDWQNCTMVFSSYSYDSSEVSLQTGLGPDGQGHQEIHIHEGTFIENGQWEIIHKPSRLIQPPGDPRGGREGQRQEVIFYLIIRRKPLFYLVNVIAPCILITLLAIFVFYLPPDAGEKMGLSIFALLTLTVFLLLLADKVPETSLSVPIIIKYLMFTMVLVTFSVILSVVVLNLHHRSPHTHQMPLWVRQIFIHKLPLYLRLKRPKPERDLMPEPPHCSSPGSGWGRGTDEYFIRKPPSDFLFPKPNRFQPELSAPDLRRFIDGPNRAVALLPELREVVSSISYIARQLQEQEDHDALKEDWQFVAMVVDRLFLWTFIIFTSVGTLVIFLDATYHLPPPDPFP
human alpha1 nicotinic acetylcholine (nACh) receptor, sequence (Q07001 22-517): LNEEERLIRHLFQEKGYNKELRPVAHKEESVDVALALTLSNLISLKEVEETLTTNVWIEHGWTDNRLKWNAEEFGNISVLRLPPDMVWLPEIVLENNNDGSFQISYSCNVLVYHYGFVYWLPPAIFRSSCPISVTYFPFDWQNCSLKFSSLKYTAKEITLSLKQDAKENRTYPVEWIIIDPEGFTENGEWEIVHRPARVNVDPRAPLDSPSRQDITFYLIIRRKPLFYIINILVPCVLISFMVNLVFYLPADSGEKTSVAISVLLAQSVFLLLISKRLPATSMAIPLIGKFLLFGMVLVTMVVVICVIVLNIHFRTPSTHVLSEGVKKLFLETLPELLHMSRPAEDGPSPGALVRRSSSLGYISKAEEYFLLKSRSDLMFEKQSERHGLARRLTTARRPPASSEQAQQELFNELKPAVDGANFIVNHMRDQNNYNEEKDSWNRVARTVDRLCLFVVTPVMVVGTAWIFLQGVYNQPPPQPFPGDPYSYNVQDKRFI
Method: Cells expressing human alpha1 nicotinic acetylcholine (nACh) receptor (nAChR) were washed and dissociated using Trypsin containing buffer. Cells were then washed and seeded at a density of 3-5 million cells/mL and allowed to grow for 3 days. Then, 60-80 μL of cells were added to plates and incubated with dose response of an ARM compound of Formula (I) with a top concentration of either 10 μM or 100 μM. The receptor was then stimulated via addition of acetylcholine (ACh) and activation of the receptor was monitored via the IONFlux automated patch clamp system. IonFlux Data Analyzer software was utilized to perform leak subtraction and measure (min) peak current amplitude.
Data processing: (1) Current values recorded for vehicle only applications in individual traps/patterns were subtracted from corresponding current amplitude values for control, test article and control+test article. (2) Control response was calculated as % of the average response of the 3rd out of total 3 ACh (10 mM) applications alone. In rare situations, if the 3rd ACh response was obscured due to technical artifacts, the 2nd and/or 1 st ACh (10 mM) application was considered as control. The peak current amplitude generated in the presence of each test article concentration was then used to calculate the % inhibition as compared to control response (10 mM ACh alone). These estimates were further corrected for vehicle response and run down corrected by normalizing with time matched control responses (10 mM ACh alone). The corrected percentages were then fit with a non-linear function in GraphPad Prism 6 (or later versions) to determine the […].
Exclusion criteria: (i) any n's with poor recording quality, (ii) control current amplitude <500 pA or (iii) significant outliers, as determined by the Grubbs' test.
ARMs compounds of Formula (I) of the invention were tested for antagonism of the nAChR in the above assay in […] experimental runs and the results are shown in Table 7 below. Antagonistic activity of the compounds of Formula (I) of the invention is reported as an IC50 value (half maximal inhibitory concentration) and the maximum percentage antagonism observed at the highest concentration of compound of Formula (I) tested, as indicated in Table 7. For compounds tested in more than one experimental run, the IC50 value is reported as an average.

| Emax at 10 µM ([3]; maximum percentage antagonism at maximum concentration tested 10 μM, read-out: Maximum Response (%)) [%] | SMILES | EC50 [1] | pKd of Antibody for ARM Compound of Formula (I) [2] | Emax at 100 µM ([3]; read-out: Maximum Response (%)) [%] | IC50 [3] [nM] | ADCC Reporter Assay pEC50 [1] | Emax at 33.33 µM ([3]; maximum percentage antagonism at maximum concentration tested 33.33 μM, read-out: Maximum Response (%)) [%] |
| --- | --- | --- | --- | --- | --- | --- | --- |
|  | CC(C)N(C)[C@@H]1CC[C@H](N2CC[C@H](Nc3ncnc4ccc(C(F)(F)F)cc34)C2=O)[C@H](NC(=O)[C@H]2CC[C@@H](NC(=O)CCOCCOCCNC(=O)CCNC(=O)[C@H]3CC(=O)N(C)[C@@H]3c3cccnc3)CC2)C1 [Example 16, (2S,3S)-N-(3-((2-(2-(3-(((1S,4s)-4-(((1R,2S,5R)-5-(Isopropyl(methyl)amino)-2-((S)-2-oxo-3-((6-(trifluoromethyl)quinazolin-4-yl)amino)pyrrolidin-1-yl)cyclohexyl)carbamoyl)cyclohexyl)amino)-3-oxopropoxy)ethoxy)ethyl)amino)-3-oxopropyl)-1-methyl-5-oxo-2-(pyridin-3-yl)pyrrolidine-3-carboxamide] | 0.925 nM and 0.119 nM | 9.287 | 47.8 | > 100000 |  |  |
|  | CC(C)N(C)[C@@H]1CC[C@H](N2CC[C@H](Nc3ncnc4ccc(C(F)(F)F)cc34)C2=O)[C@H](NC(=O)[C@H]2CC[C@@H](NC(=O)CCCC(=O)NCCCOCCCNC(=O)[C@H]3CC(=O)N(C)[C@@H]3c3cccnc3)CC2)C1 [Example 18, N^1-((1S,4s)-4-(((1R,2S,5R)-5-(Isopropyl(methyl)amino)-2-((S)-2-oxo-3-((6-(trifluoromethyl)quinazolin-4-yl)amino)pyrrolidin-1-yl)cyclohexyl)carbamoyl)cyclohexyl)-N^5-(3-(3-((2S,3S)-1-methyl-5-oxo-2-(pyridin-3-yl)pyrrolidine-3-carboxamido)propoxy)propyl)glutaramide] | 0.675 nM and 0.132 nM | 9.0895 | 44.9 | > 100000 |  |  |
|  | CC(C)N(C)[C@@H]1CC[C@H](N2CC[C@H](Nc3ncnc4ccc(C(F)(F)F)cc34)C2=O)[C@H](NC(=O)[C@H]2CC[C@H](NC(=O)CCCC(=O)NCCCOCCCNC(=O)[C@H]3CC(=O)N(C)[C@@H]3c3cccnc3)CC2)C1 [Example 19] | 4.9 nM | 9.19 | 34.2 | > 100000 |  |  |
|  | CN1C(=O)C[C@H](C(=O)NCCOCCOCCOCCC(=O)N[C@H]2CC[C@@H](C(=O)N[C@@H]3C[C@H](NC(C)(C)C)CC[C@@H]3N3CC[C@H](Nc4ncnc5ccc(C(F)(F)F)cc45)C3=O)CC2)[C@H]1c1cccnc1 [Example 23, (2S,3S)-N-(2-(2-(2-(3-(((1S,4s)-4-(((1R,2S,5R)-5-(tert-Butylamino)-2-((S)-2-oxo-3-((6-(trifluoromethyl)quinazolin-4-yl)amino)pyrrolidin-1-yl)cyclohexyl)carbamoyl)cyclohexyl)amino)-3-oxopropoxy)ethoxy)ethoxy)ethyl)-1-methyl-5-oxo-2-(pyridin-3-yl)pyrrolidine-3-carboxamide] | 1.12 nM and 2.69 nM and 0.566 nM | 9.2166 | 50.5 | 85200 |  |  |
|  | CC(C)N(C)[C@@H]1CC[C@H](N2CC[C@H](Nc3ncnc4ccc(C(F)(F)F)cc34)C2=O)[C@H](NC(=O)[C@H]2C[C@@H](NC(=O)CCOCCOCCOCCNC(=O)[C@H]3CC(=O)N(C)[C@@H]3c3cccnc3)C2)C1 [Example 24] | 1.46 nM and 0.358 nM | 9.4425 | 59.5 | 85300 |  |  |
|  | CC(C)N(C)[C@@H]1CC[C@H](N2CC[C@H](Nc3ncnc4ccc(C(F)(F)F)cc34)C2=O)[C@H](NC(=O)[C@H]2CC[C@@H](NC(=O)CCOCCOCCOCCNC(=O)[C@H]3CC(=O)N(C)[C@@H]3c3cccnc3)CC2)C1 [Example 28] | 0.251 nM | 9.273 | 69.9 | 40900 |  |  |
| 5.4 | CC(C)N(C)[C@@H]1CC[C@H](N2CC[C@H](Nc3ncnc4ccc(C(F)(F)F)cc34)C2=O)[C@H](NC(=O)[C@H]2CC[C@H](NC(=O)CCOCCOCCOCCNC(=O)[C@H]3CC(=O)N(C)[C@@H]3c3cccnc3)CC2)C1 [Example 30] | 7.53 nM | 9.3155 |  | > 10000 |  |  |
|  | CCN1C(=O)C[C@H](C(=O)NCCOCCOCCOCCC(=O)N[C@H]2CC[C@@H](C(=O)N[C@@H]3C[C@H](N(C)C(C)C)CC[C@@H]3N3CC[C@H](Nc4ncnc5ccc(C(F)(F)F)cc45)C3=O)CC2)[C@H]1c1cccnc1 [Example 34] | 1 nM | 9.933 | 79.2 | 28500 |  |  |
|  | CCN1C(=O)C[C@H](C(=O)NCCOCCOCCOCCC(=O)N[C@H]2CC[C@@H](C(=O)N[C@@H]3C[C@H](NC(C)(C)C)CC[C@@H]3N3CC[C@H](Nc4ncnc5ccc(C(F)(F)F)cc45)C3=O)CC2)[C@H]1c1cccnc1 [Example 35] | 2.51 nM | 9.785 | 52.3 | 89200 |  |  |
|  | CC(C)N(C)[C@@H]1CC[C@H](N2CC[C@H](Nc3ncnc4ccc(C(F)(F)F)cc34)C2=O)[C@H](NC(=O)C2CCC(NC(=O)CCOCCNC(=O)CCOCCNC(=O)[C@H]3CC(=O)N(C)[C@@H]3c3cccnc3)CC2)C1 (stereo partly drawn) [Example 48] |  | 8.975 | 77 | 31800 | 9.159 and 9.168 |  |
|  | CC(C)N(C)[C@@H]1CC[C@H](N2CC[C@H](Nc3ncnc4ccc(C(F)(F)F)cc34)C2=O)[C@H](NC(=O)[C@H]2C[C@@H](NC(=O)CCOCCOCCNC(=O)CCNC(=O)[C@H]3CC(=O)N(C)[C@@H]3c3cccnc3)C2)C1 [Example 49, (2S,3S)-N-(3-((2-(2-(3-(((1S,3s)-3-(((1R,2S,5R)-5-(Isopropyl(methyl)amino)-2-((S)-2-oxo-3-((6-(trifluoromethyl)quinazolin-4-yl)amino)pyrrolidin-1-yl)cyclohexyl)carbamoyl)cyclobutyl)amino)-3-oxopropoxy)ethoxy)ethyl)amino)-3-oxopropyl)-1-methyl-5-oxo-2-(pyridin-3-yl)pyrrolidine-3-carboxamide] | 0.845 nM and 0.303 nM | 9.191 | 56.7 | 80300 |  |  |
|  | CC(C)N(C)[C@@H]1CC[C@H](N2CC[C@H](Nc3ncnc4ccc(C(F)(F)F)cc34)C2=O)[C@H](NC(=O)[C@H]2CC[C@@H](NC(=O)CCCO[C@H]3CC[C@H](NC(=O)CCNC(=O)[C@@H]4CC(=O)N(C)[C@H]4c4cccnc4)CC3)CC2)C1 [Example 52, (2S,3S)-N-(3-(((1R,4S)-4-(4-(((1S,4S)-4-(((1R,2S,5R)-5-(Isopropyl(methyl)amino)-2-((S)-2-oxo-3-((6-(trifluoromethyl)quinazolin-4-yl)amino)pyrrolidin-1-yl)cyclohexyl)carbamoyl)cyclohexyl)amino)-4-oxobutoxy)cyclohexyl)amino)-3-oxopropyl)-1-methyl-5-oxo-2-(pyridin-3-yl)pyrrolidine-3-carboxamide] | 0.222 nM and 0.294 nM | 9.2545 |  | > 33300 |  | 8.3 |
